Measured values from US12679848B2, “Plasma kallikrein inhibitors” (Merck Sharp & Dohme LLC, priority 2020, dated 2026).

Tests used:
human factor XIa = human factor XIa (Homo sapiens, UniProt P03951); assay: Factor XIa Assay; assay type: biochemical; conditions: human factor XIa 0.04 nM, substrate GPR-AFC, 30 min pre-incubation, 25° C., pH 7.4; read-out: FXIa IC50
Human plasma kallikrein = molecular target: T1, Human plasma kallikrein (Homo sapiens, UniProt P03952); assay: Plasma Kallikrein Assay; assay type: biochemical; conditions: purified Human plasma kallikrein 0.5 nM, substrate Acetyl-K-P-R-AFC, HEPES pH 7.4; read-out: PKal IC50
T1 construct: yields a heavy chain (371 amino acids) and a light chain (248 amino acids); The active site of plasma kallikrein is contained in the light chain; purchased Enzyme Research Laboratories
Summary of the method: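 Purified human plasma kallikrein at 0.5 nM final with substrate Acetyl-K-P-R-AFC at […], in 50 mM HEPES pH 7.4, 150 mM NaCl, 5 mM CaCl2, 0.1% PEG 8000, at rt or 37° C after enzyme-inhibitor equilibration. IC50 from four-parameter logistic fit of fluorescence rate; Ki via Cheng-Prusoff.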

Sequence of human factor XIa (P03951 388-625 limits assumed): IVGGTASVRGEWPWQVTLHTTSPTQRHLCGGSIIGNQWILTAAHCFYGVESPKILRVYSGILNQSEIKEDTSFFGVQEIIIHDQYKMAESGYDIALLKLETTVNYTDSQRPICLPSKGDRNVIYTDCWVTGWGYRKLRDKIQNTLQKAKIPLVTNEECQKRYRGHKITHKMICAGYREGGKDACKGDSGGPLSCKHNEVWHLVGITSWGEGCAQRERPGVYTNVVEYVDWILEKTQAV
Sequence of human factor XIa (P03951 19-387 partner limits assumed): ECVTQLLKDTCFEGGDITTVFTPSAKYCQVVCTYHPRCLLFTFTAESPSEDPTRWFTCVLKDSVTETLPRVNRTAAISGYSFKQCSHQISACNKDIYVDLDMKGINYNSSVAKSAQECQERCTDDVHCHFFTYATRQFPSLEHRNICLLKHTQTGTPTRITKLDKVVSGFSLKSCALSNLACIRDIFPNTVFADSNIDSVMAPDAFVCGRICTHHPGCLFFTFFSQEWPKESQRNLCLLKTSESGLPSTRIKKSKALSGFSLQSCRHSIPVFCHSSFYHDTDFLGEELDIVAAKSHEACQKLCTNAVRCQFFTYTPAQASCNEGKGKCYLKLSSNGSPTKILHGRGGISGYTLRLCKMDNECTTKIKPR
T1 sequence (P03952 391-638 limits assumed): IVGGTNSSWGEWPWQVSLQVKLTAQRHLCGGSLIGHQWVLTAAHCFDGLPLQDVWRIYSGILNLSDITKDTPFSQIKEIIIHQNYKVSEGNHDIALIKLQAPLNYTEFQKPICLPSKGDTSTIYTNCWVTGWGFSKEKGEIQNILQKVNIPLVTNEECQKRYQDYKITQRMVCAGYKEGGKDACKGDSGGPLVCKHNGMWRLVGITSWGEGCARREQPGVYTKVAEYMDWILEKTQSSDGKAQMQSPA
T1 sequence (P03952 20-390 partner limits assumed): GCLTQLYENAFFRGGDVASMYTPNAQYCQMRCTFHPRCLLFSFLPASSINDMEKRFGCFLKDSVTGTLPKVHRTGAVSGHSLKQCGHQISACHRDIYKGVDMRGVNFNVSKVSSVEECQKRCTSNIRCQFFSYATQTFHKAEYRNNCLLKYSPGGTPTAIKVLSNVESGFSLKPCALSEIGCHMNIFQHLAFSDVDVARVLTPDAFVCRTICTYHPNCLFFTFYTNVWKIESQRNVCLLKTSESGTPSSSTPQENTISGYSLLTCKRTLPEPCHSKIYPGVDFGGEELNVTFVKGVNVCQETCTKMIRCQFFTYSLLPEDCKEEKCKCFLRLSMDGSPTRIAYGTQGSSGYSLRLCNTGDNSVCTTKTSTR

Compound | IC50 (human factor XIa) [µM] | IC50 (Human plasma kallikrein) [µM]
Nc1c(C(=O)N2CCC[C@@]3(C2)OC(=O)Nc2ccc(Cl)c(F)c23)cnn1Cc1ccc(Cl)cc1 [Example 42, (R)-1'-(5-Amino-1-(4-chlorobenzyl)-1H-pyrazole-4-carbonyl)-6-chloro-5-fluorospiro[benzo[d][1,3]oxazine-4,3'-piperidin]-2(1H)-one] | 0.504 | 0.0014
Nc1c(C(=O)N2CCC[C@@]3(C2)OC(=O)Nc2ccc(Cl)c(F)c23)cnn1Cc1ccc(C(F)(F)F)nc1 [Example 43, (R)-1'-(5-Amino-1-((6-(trifluoromethyl)pyridin-3-yl)methyl)-1H-pyrazole-4-carbonyl)-6-chloro-5-fluorospiro[benzo[d][1,3]oxazine-4,3'-piperidin]-2(1H)-one] | 0.905 | 0.008
Nc1c(C(=O)N2CCC[C@@]3(C2)OC(=O)Nc2ccc(Cl)c(F)c23)cnn1Cc1ccccc1Cl [Example 44, (R)-1'-(5-Amino-1-(2-chlorobenzyl)-1H-pyrazole-4-carbonyl)-6-chloro-5-fluorospiro[benzo[d][1,3]oxazine-4,3'-piperidin]-2(1H)-one] | 0.251 | 0.0011
Cc1cccc(Cn2ncc(C(=O)N3CCC[C@@]4(C3)OC(=O)Nc3ccc(Cl)c(F)c34)c2N)c1 [Example 45, (R)-1'-(5-Amino-1-(3-methylbenzyl)-1H-pyrazole-4-carbonyl)-6-chloro-5-fluorospiro[benzo[d][1,3]oxazine-4,3'-piperidin]-2(1H)-one] | 0.156 | 0.0007
Nc1c(C(=O)N2CCC[C@@]3(C2)OC(=O)Nc2ccc(Cl)c(F)c23)cnn1C1(c2ccc(F)cc2)CCC1 [Example 46, (R)-1'-(5-Amino-1-(1-(4-fluorophenyl)cyclobutyl)-1H-pyrazole-4-carbonyl)-6-chloro-5-fluorospiro[benzo[d][1,3]oxazine-4,3'-piperidin]-2(1H)-one] | 0.167 | 0.0012
Nc1c(C(=O)N2CCC[C@@]3(C2)OC(=O)Nc2ccc(Cl)c(F)c23)cnn1C1(C(F)(F)F)CCC1 [Example 47, (R)-1'-(5-Amino-1-(1-(trifluoromethyl)cyclobutyl)-1H-pyrazole-4-carbonyl)-6-chloro-5-fluorospiro[benzo[d][1,3]oxazine-4,3'-piperidin]-2(1H)-one] | 0.731 | 0.0063
Nc1c(C(=O)N2CCC[C@@]3(C2)OC(=O)Nc2ccc(Cl)c(F)c23)cnn1CC(F)(F)C(F)(F)F [Example 48, (R)-1'-(5-Amino-1-(2,2,3,3,3-pentafluoropropyl)-1H-pyrazole-4-carbonyl)-6-chloro-5-fluorospiro[benzo[d][1,3]oxazine-4,3'-piperidin]-2(1H)-one] | 0.516 | 0.0131
CC(C)(n1ncc(C(=O)N2CCC[C@@]3(C2)OC(=O)Nc2ccc(Cl)c(F)c23)c1N)C(F)(F)F [Example 49, (R)-1'-(5-Amino-1-(1,1,1-trifluoro-2-methylpropan-2-y1)-1H-pyrazole-4-carbonyl)-6-chloro-5-fluorospiro[benzo[d][1,3]oxazine-4,3'-piperidin]-2(1H)-one] | 2.93 | 0.0169
Nc1c(C(=O)N2CCC[C@@]3(C2)OC(=O)Nc2ccc(Cl)c(F)c23)cnn1C1(C(F)(F)F)CC1 [Example 50, (R)-1'-(5-Amino-1-(1-(trifluoromethyl)cyclopropyl)-1H-pyrazole-4-carbonyl)-6-chloro-5-fluorospiro[benzo[d][1,3]oxazine-4,3'-piperidin]-2(1H)-one] | 0.684 | 0.0083
Nc1c(C(=O)N2CCC[C@@]3(C2)OC(=O)Nc2ccc(Cl)c(F)c23)cnn1Cc1cncnc1 [Example 51, (R)-1'-(5-Amino-1-(pyrimidin-5-ylmethyl)-1H-pyrazole-4-carbonyl)-6-chloro-5-fluorospiro[benzo[d][1,3]oxazine-4,3'-piperidin]-2(1H)-one] | 0.996 | 0.0098
Nc1c(C(=O)N2CCC[C@@]3(C2)OC(=O)Nc2ccc(Cl)c(F)c23)cnn1C1(C(F)(F)F)CC(F)(F)C1 [Example 52, (R)-1'-(5-Amino-1-(3,3-difluoro-1-(trifluoromethyl)cyclobutyl)-1H-pyrazole-4-carbonyl)-6-chloro-5-fluorospiro[benzo[d][1,3]oxazine-4,3'-piperidin]-2(1H)-one] | 0.978 | 0.0091
Nc1c(C(=O)N2CCC[C@@]3(C2)OC(=O)Nc2ccc(Cl)c(F)c23)cnn1C1(C(F)(F)F)CCOCC1 [Example 53, (R)-1'-(5-Amino-1-(4-(trifluoromethyl)tetrahydro-2H-pyran-4-y1)-1H-pyrazole-4-carbonyl)-6-chloro-5-fluorospiro[benzo[d][1,3]oxazine-4,3'-piperidin]-2(1H)-one] | 1.11 | 0.0087
Nc1c(C(=O)N2CCC[C@@]3(C2)OC(=O)Nc2ccc(Cl)c(F)c23)cnn1Cc1cnccn1 [Example 54, (R)-1'-(5-Amino-1-(pyrazin-2-ylmethyl)-1H-pyrazole-4-carbonyl)-6-chloro-5-fluorospiro[benzo[d][1,3]oxazine-4,3'-piperidin]-2(1H)-one] | 0.601 | 0.0034
Nc1c(C(=O)N2CCC[C@@]3(C2)OC(=O)Nc2ccc(Cl)c(F)c23)cnn1Cc1cccnc1 [Example 55, (R)-1'-(5-Amino-1-(pyridin-3-ylmethyl)-1H-pyrazole-4-carbonyl)-6-chloro-5-fluorospiro[benzo[d][1,3]oxazine-4,3'-piperidin]-2(1H)-one] | 0.418 | 0.002
COc1ccc(-n2ncc(C(=O)N3CCC[C@@]4(C3)OC(=O)Nc3ccc(Cl)c(F)c34)c2N)cc1 [Example 58, (R)-1'-(5-Amino-1-(4-methoxyphenyl)-1H-pyrazole-4-carbonyl)-6-chloro-5-fluorospiro[benzo[d][1,3]oxazine-4,3'-piperidin]-2(1H)-one] | 3.13 | 0.0397
Nc1c(C(=O)N2CCC[C@@]3(C2)OC(=O)Nc2ccc(Cl)c(F)c23)cnn1-c1ccc2cn[nH]c2c1 [Example 59, (R)-1'-(5-Amino-1-(1H-indazol-6-yl)-1H-pyrazole-4-carbonyl)-6-chloro-5-fluorospiro[benzo[d][1,3]oxazine-4,3'-piperidin]-2(1H)-one] | 1.16 | 0.0257
Nc1c(C(=O)N2CCC[C@@]3(C2)OC(=O)Nc2ccc(Cl)c(F)c23)cnn1-c1ccnc2ccc(F)cc12 [Example 60, (R)-1'-(5-Amino-1-(6-fluoroquinolin-4-y1)-1H-pyrazole-4-carbonyl)-6-chloro-5-fluorospiro[benzo[d][1,3]oxazine-4,3'-piperidin]-2(1H)-one] | 0.599 | 0.008
Cc1ncccc1-n1ncc(C(=O)N2CCC[C@@]3(C2)OC(=O)Nc2ccc(Cl)c(F)c23)c1N [Example 61, (R)-1'-(5-Amino-1-(2-methylpyridin-3-y1)-1H-pyrazole-4-carbonyl)-6-chloro-5-fluorospiro[benzo[d][1,3]oxazine-4,3'-piperidin]-2(1H)-one] | 1.75 | 0.0425
Nc1c(C(=O)N2CCC[C@@]3(C2)OC(=O)Nc2ccc(Cl)c(F)c23)cnn1-c1ncccc1F [Example 62, (R)-1'-(5-Amino-1-(3-fluoropyridin-2-y1)-1H-pyrazole-4-carbonyl)-6-chloro-5-fluorospiro[benzo[d][1,3]oxazine-4,3'-piperidin]-2(1H)-one] | 0.855 | 0.0229
Cc1c(CO)cccc1-n1ncc(C(=O)N2CCC[C@@]3(C2)OC(=O)Nc2ccc(Cl)c(F)c23)c1N [Example 63, (R)-1'-(5-Amino-1-(3-(hydroxymethyl)-2-methylphenyl)-1H-pyrazole-4-carbonyl)-6-chloro-5-fluorospiro[benzo[d][1,3]oxazine-4,3'-piperidin]-2(1H)-one] | 1.58 | 0.029
Cc1ccccc1-n1ncc(C(=O)N2CCC[C@@]3(C2)OC(=O)Nc2ccc(Cl)c(F)c23)c1N [Example 64, (R)-1'-(5-Amino-1-(o-toly1)-1H-pyrazole-4-carbonyl)-6-chloro-5-fluorospiro[benzo[d][1,3]oxazine-4,3'-piperidin]-2(1H)-one] | 1.31 | 0.0281
Nc1c(C(=O)N2CCC[C@@]3(C2)OC(=O)Nc2ccc(Cl)c(F)c23)cnn1-c1ccc(Cl)cc1Cl [Example 65, (R)-1'-(5-Amino-1-(2,4-dichlorophenyl)-1H-pyrazole-4-carbonyl)-6-chloro-5-fluorospiro[benzo[d][1,3]oxazine-4,3'-piperidin]-2(1H)-one] | 0.16 | 0.0375
Cc1ccc(-n2ncc(C(=O)N3CCC[C@@]4(C3)OC(=O)Nc3ccc(Cl)c(F)c34)c2N)c(F)c1 [Example 66, (R)-1'-(5-Amino-1-(2-fluoro-4-methylpheny1)-1H-pyrazole-4-carbonyl)-6-chloro-5-fluorospiro[benzo[d][1,3]oxazine-4,3'-piperidin]-2(1H)-one] | 0.242 | 0.039
CC(=O)Nc1ccc(-n2ncc(C(=O)N3CCC[C@@]4(C3)OC(=O)Nc3ccc(Cl)c(F)c34)c2N)cc1 [Example 67, (R)-N-(4-(5-Amino-4-(6-chloro-5-fluoro-2-oxo-1,2-dihydrospiro[benzo[d][1,3]oxazine-4,3'-piperidine]-1'-carbonyl)-1H-pyrazol-1-yl)phenyl)acetamide] | 7.32 | 0.0462
Nc1c(C(=O)N2CCC[C@@]3(C2)OC(=O)Nc2ccc(Cl)c(F)c23)cnn1-c1cccc(C(=O)O)c1 [Example 68, (R)-3-(5-Amino-4-(6-chloro-5-fluoro-2-oxo-1,2-dihydrospiro[benzo[d][1,3]oxazine-4,3'-piperidine]-1'-carbonyl)-1H-pyrazol-1-yl)benzoic acid] | 1.48 | 0.0135
